Reference: US10844051B2, “Substituted oxazoles for the treatment of cancer” (THE ROYAL INSTITUTION FOR THE ADCANCEMENT OF …, priority 2015, dated 2020)
Entries after “also recorded” stand apart in the source; their conditions may differ. Blank lines part the entries; values can stand above or below the molecule they belong to.

Legend:
[1] = tested on: HCT-116 colorectal cancer cells; experiment: MTT analysis, HCT-116; type: cell-based; conditions: endogenous KRAS 13D, 72 hours
Description: (§1) Panc 10.05, H23 and HCT-116 cells express endogenous KRAS 12D, 12C and 13D mutants, respectively. Cells were exposed to DMSO vehicle or compounds at designated doses for 72 hours. Experiments were done in triplicate.

[2] = tested on: H23 KRAS-mutant NSCLC cells; experiment: MTT assay, H23; type: cell-based; conditions: endogenous KRAS 12C, 72 hours
Description: FIG. 2.7 Compound 673 is cytotoxic in KRAS-mutant NSCLC cells (A549 and H23), but is not toxic the KRAS wild-type NSCLC cells (H322). Cells were exposed to vehicle or compounds (μM) for 72 hours. Viable cells were evaluated by MTT assays.
as §1

[3] = tested on: Panc10.05 pancreatic cancer cells; experiment: MTT analysis, Panc10.05; type: cell-based; conditions: endogenous KRAS 12D, 72 hours
Description: as §1

[4] = tested on: phosphorylation of ERK in Panc 10.05 cells; experiment: Western blot, phosphorylation of ERK in Panc 10.05 cells; type: cell-based; conditions: 24 hours
Description: (§2) C-PARP, cleaved PARP. Panc10.05 cells were exposed to DMSO vehicle or compounds at designated doses for 24 hours.
Panc10.05 cells were exposed to DMSO vehicle or compounds at designated doses for 24 hours.

[5] = tested on: phosphorylation of ERK in HCT-116 cells; experiment: Western blot, phosphorylation of ERK in HCT-116 cells; type: cell-based; conditions: 10 μM, 24 hours
Description: HCT-116 cells were exposed to DMSO vehicle or compounds at designated doses for 24 hours.

human STING (hSTING) = target: T1, human STING (hSTING) (Homo sapiens, UniProt Q86WV6); experiment: hSTING ISRE-luc reporter assay in 293T cells; type: cell-based; conditions: 24 hours
T1 construct: expressed in transfected cells; host or cells: 293T
T1 sequence (Q86WV6 whole entry H232R): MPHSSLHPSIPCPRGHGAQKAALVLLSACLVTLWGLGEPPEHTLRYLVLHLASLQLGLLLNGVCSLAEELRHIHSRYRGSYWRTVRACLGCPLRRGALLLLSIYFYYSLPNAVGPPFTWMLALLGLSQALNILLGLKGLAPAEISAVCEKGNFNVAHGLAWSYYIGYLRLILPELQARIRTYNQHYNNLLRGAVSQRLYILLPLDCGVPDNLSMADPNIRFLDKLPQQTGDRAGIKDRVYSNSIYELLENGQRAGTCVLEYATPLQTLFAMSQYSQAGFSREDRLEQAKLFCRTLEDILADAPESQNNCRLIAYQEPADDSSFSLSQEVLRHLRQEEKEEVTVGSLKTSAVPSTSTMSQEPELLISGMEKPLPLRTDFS
Description: ISRE-luc (reporter), pRL-TK (internal control) and hSTING-expressing plasmids were transiently transfected into 293T cells. Cells were exposed to DMSO vehicle control or compounds for 24 hours. Experiments were done in triplicate.

ERG = target: T2, ERG (Homo sapiens, UniProt P11308); experiment: ERG-dependent reporter assay in HEK293 cells; type: cell-based; set-up: expressed in transfected cells; host or cells: HEK293; conditions: PUx3-Luc reporter, 48 hours, designated doses
T2 sequence (P11308 1-486 isoform P11308-3): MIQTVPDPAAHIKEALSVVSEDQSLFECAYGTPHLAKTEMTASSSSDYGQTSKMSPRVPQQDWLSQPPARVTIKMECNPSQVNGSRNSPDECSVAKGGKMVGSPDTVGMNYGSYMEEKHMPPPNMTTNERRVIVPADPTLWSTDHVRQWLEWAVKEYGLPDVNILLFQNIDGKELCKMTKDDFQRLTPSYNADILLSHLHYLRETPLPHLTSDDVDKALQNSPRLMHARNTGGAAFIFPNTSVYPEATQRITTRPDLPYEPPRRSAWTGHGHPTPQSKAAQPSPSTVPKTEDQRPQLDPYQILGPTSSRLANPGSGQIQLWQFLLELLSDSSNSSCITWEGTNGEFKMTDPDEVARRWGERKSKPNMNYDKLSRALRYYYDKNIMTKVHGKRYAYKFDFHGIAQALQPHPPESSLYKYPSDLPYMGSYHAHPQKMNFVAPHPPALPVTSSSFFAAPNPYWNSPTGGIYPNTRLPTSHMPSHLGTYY
Description: (§3) HEK293 cells were transiently transfected with empty vector (for the NT) or ERG-expressing plasmid as well as pRL-TK (internal control) and PUx3-Luc reporter. Cells were then exposed to DMSO vehicle or compounds at designated doses for 48 hours. Experiments were done in triplicate.

ESE-1 = target: T3, ESE-1 (Homo sapiens, UniProt P78545); experiment: ESE-1 dependent reporter assay in HEK293 cells; type: cell-based; conditions: 48 hours
T3 construct: expressed in transfected cells; host or cells: HEK293
T3 sequence (P78545 1-371): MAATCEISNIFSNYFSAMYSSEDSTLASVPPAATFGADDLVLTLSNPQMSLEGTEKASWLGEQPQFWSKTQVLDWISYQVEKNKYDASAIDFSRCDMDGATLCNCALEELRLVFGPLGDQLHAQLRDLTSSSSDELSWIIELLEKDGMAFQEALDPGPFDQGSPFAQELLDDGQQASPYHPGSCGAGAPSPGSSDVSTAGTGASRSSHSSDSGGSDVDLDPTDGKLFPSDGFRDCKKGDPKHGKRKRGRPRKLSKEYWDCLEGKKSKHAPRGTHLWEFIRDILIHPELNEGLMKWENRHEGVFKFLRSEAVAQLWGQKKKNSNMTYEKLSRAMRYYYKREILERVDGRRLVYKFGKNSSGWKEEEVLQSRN
Description: as §3
Experiments were done as described above in FIG. 1.1a) except that ERG plasmid was replaced by ESE-1 plasmid.

[6] = tested on: EZH2, c-Myc and ERG expression in VCaP cells; experiment: Expression of EZH2, c-Myc and ERG in VCaP cells; type: cell-based; conditions: 10 μM, 72 hours
Description: VCaP cells were exposed to DMSO vehicle control, 648, 698 and 891 at 10 μM for 72 hours in DMEM medium plus 10% FBS or phenol red-free DMEM medium plus 10% charcoal-stripped FBS (CS-FBS).

Panc 10.05 cells = experiment: Western blot, apoptosis (cleaved PARP) in Panc 10.05 cells; type: cell-based; conditions: 24 hours
Description: as §2

[7] = target: T4, recombinant human KRAS 12D mutant protein (Homo sapiens, UniProt P01116, G12D); experiment: SPR analysis on amine-coupled KRAS (G12D mutant); type: binding; conditions: for Kd: PBS-T containing 1 μM GDP, steady-state
T4 construct: purchased ORIGENE TP700052
T4 sequence (P01116 1-188 isoform P01116-2 G12D): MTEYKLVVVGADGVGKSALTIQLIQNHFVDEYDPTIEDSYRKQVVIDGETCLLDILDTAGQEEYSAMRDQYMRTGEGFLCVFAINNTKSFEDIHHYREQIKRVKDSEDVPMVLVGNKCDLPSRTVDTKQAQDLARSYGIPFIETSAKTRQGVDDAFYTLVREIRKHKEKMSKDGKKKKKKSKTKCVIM
Description: FIG. 4.1 SPR analysis. Left panels, SPR sensorgrams for compounds 784 and 895 binding to 3500 RU amine-coupled KRAS (G12D mutant) at 25 μL/min in PBS-T containing 1 μM GDP. Right panels, corresponding non-linear regression analyses of steady-state binding responses versus concentration to determine apparent equilibrium dissociation constants (KD).
Since activation of KRAS leads to activation of NF-kB,^69 we performed in vitro screening of our compounds by KRAS mutant-dependent NF-kB-luc reporter assay in HEK293 cells. […] Also, compounds of the invention are cytotoxic to PANC 10.05 pancreatic cancer cells, H23 NSCLC cells and HCT-116 colorectal cancer cells (FIG. 4.5).

human GATA3 = target: T5, human GATA3 (Homo sapiens, UniProt P23771); experiment: GATA3-dependent reporter assay in IHH cells; type: cell-based; conditions: 48 hours, 10 μM
T5 construct: expressed in transfected cells; host or cells: IHH
T5 sequence (P23771 whole entry): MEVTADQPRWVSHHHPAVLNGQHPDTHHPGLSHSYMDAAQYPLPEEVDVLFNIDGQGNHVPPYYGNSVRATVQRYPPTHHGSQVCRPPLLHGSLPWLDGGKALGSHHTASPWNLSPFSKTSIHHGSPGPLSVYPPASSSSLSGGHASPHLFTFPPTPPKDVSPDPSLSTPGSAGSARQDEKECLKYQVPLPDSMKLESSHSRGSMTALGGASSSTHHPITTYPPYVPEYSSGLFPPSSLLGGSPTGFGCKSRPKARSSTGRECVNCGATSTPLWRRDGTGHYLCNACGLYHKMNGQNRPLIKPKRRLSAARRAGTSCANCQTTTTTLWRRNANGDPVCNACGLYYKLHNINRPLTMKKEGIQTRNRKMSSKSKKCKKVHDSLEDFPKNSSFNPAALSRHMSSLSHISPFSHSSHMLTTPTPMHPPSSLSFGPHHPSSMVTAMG
Description: The IHH cells were transiently transfected with empty vector (for the NT) or human GATA3-expressing plasmid as well as pRL-TK (internal control) and GATA-Luc reporter plasmids. Cells were exposed to DMSO vehicle or compounds for 48 hours. Experiments were done in triplicate.

human GATA2 = target: T6, human GATA2 (Homo sapiens, UniProt P23769); experiment: GATA2-dependent reporter assay in IHH cells; type: cell-based; conditions: GATA-Luc reporter, 48 h
T6 construct: expressed in transfected cells; host or cells: IHH
T6 sequence (P23769 1-480): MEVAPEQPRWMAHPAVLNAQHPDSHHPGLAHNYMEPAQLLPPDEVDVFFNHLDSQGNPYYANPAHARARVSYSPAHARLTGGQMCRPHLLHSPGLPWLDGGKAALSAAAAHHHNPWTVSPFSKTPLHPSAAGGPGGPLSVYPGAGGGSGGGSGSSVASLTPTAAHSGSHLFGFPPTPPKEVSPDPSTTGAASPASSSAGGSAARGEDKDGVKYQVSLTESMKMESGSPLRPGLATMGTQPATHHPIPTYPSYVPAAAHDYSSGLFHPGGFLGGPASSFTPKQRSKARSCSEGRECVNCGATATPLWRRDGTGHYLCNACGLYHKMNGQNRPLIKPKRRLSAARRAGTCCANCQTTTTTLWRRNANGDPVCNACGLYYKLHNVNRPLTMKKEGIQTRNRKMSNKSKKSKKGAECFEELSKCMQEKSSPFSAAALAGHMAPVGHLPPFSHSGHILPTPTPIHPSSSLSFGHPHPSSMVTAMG
Description: K7174 is a known GATA2 inhibitor. The IHH cells were transiently transfected with empty vector (for the NT) or human GATA2-expressing plasmid as well as pRL-TK (internal control) and GATA-Luc reporter plasmids. Cells were exposed to DMSO vehicle or compounds for 48 h. Experiments were in triplicate.

[8] = target: T7, recombinant protein of human GATA2 (Homo sapiens, UniProt P23769); experiment: SPR analysis on amine-coupled GATA2; type: binding; conditions: 50 μM each
T7 sequence (P23769 1-480): T6 sequence (P23769 1-480)
From the text: In embodiments of the invention, the androgen-bound AR is regressing GATA2 expression and inhibition of AR via castration or use of antiandrogen releases such expression. […] Overexpression of GATA2 confers resistance to antiandrogen bicalutamide (Bic) (FIG. 2.9). Compound 673 is effective against the LNCaP stably transfected with GATA2-expressing plasmid (referred to as LNCaP-GATA2 cells) (FIG. 2.8).

Structure (SMILES): N#CCN(CCc1c[nH]c2ccccc12)Cc1nc(-c2cccc(F)c2)c(-c2cccc(F)c2)[nH]1 [Compound 1186]
inhibition of proliferation of HCT-116 cells (MTT) [1]: dose-dependently inhibit proliferation | inhibition of proliferation of H23 cells (MTT) [2]: dose-dependently inhibit proliferation | inhibition of proliferation of Panc10.05 cells (MTT) [3]: dose-dependently inhibit proliferation | suppression of phosphorylation of ERK (Western blot) ([4]; 10 μM): potently suppressed phosphorylation of ERK | suppression of phosphorylation of ERK (Western blot) [5]: potently suppressed phosphorylation of ERK

activation of hSTING in ISRE-luc reporter assay (human STING (hSTING)): activate hSTING | ERG inhibition in ERG-dependent reporter assay (ERG): ERG inhibitors | ESE-1 inhibition in ESE-1 dependent reporter assay (ESE-1): ESE-1 inhibitors
Structure (SMILES): Oc1ccc(-c2nc(Cc3c[nH]c4ccccc34)oc2-c2ccc(O)cc2)cc1 [Compound 698]
inhibition of expression of EZH2, c-Myc and ERG [6]: inhibit expression of EZH2, c-Myc and ERG

direct binding with KRAS G12D mutant (SPR) [7]: Direct binding | Kd [7]: 45 µM
Structure (SMILES): COc1ccc(CC/C(=C/C(=O)N2CCC(O)(c3ccccc3)CC2)c2ccccc2)cc1F [Compound 895]
induction of apoptosis (cleaved PARP, Western blot) (Panc 10.05 cells): induced apoptosis | suppression of phosphorylation of ERK (Western blot) ([4]; designated doses): dose-dependently suppressed phosphorylation of ERK | suppression of phosphorylation of ERK (Western blot) [5]: potently suppressed phosphorylation of ERK

activity against GATA3 in GATA3-dependent reporter assay (human GATA3): inactive against GATA3 | direct binding with KRAS G12D mutant (SPR) [7]: Direct binding | Kd [7]: 190 µM | GATA2 inhibition in GATA2-dependent reporter assay (human GATA2): GATA2 inhibitors
Structure (SMILES): O=C(Cc1c[nH]c2ccccc12)NCc1nc(-c2ccccc2)c(-c2ccccc2)o1 [Compound 784]
induction of apoptosis (cleaved PARP, Western blot) (Panc 10.05 cells): induced apoptosis | suppression of phosphorylation of ERK (Western blot) ([4]; designated doses): dose-dependently suppressed phosphorylation of ERK

activation of hSTING in ISRE-luc reporter assay (human STING (hSTING)): activate human STING (hSTING)
Structure (SMILES): COc1ccc(-c2nc(CCCc3c[nH]c4ccccc34)oc2-c2ccc(OC)cc2)cc1 [Compound 670]
binding to amine-coupled GATA2 (SPR) [8]: Direct binding; also recorded: Specific binding

GATA2 inhibition in GATA2-dependent reporter assay (human GATA2): GATA2 inhibitors
Structure (SMILES): O=C(CC(O)(CCc1ccccc1)c1ccccc1)N1CCC(O)(c2ccccc2)CC1 (stereo not drawn) [Compound V248]
binding to amine-coupled GATA2 (SPR) [8]: Direct binding; also recorded: Specific binding

ESE-1 inhibition in ESE-1 dependent reporter assay (ESE-1): ESE-1 inhibitors
Structure (SMILES): Fc1ccccc1CSc1ncnc2c1ncn2C1CCCO1 (stereo not drawn) [Compound V131]
ERG inhibition in ERG-dependent reporter assay (ERG): potent inhibitor of ERG; also recorded: ERG inhibitors

Structure (SMILES): COc1ccc(CC/C(=C/C(=O)N2CCN(c3ccccc3OC)CC2)c2ccccc2)cc1F [Compound 1261]
inhibition of proliferation of HCT-116 cells (MTT) [1]: dose-dependently inhibit proliferation | inhibition of proliferation of H23 cells (MTT) [2]: dose-dependently inhibit proliferation | inhibition of proliferation of Panc10.05 cells (MTT) [3]: dose-dependently inhibit proliferation

Structure (SMILES): Oc1ccccc1-c1nc(Cc2c[nH]c3ccccc23)oc1-c1ccccc1O [Compound 891]
inhibition of expression of EZH2, c-Myc and ERG [6]: inhibit expression of EZH2, c-Myc and ERG
